This note sets out measurements from patent US20240327417A1, “HETEROCYCLIC COMPOUNDS” (BeiGene Switzerland GmbH, priority 2021, published 2024).

Some results are limits rather than exact numbers.

Assay [1] concerns the target T1, Full length DGKα (D21-10BG, SignalChem) (Homo sapiens, UniProt P23743).
T1 construct: Full length DGKα (D21-10BG, SignalChem); purchased SignalChem D21-10BG
Description: Biochemical DGK IC50 assay (ADP-Glo, lipid micelle substrate), DGKα. The following applies: 7.5 nM enzyme, 140 μM ATP, 80 μM DAG, 1 hour preincubation, 1 hour reaction, room temperature, read-out: IC50s for DGKα. In outline:
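Full-length enzyme was assayed by ADP-Glo on DAG/PS lipid micelles at room temperature in HEPES/MgCl2/CaCl2 buffer with BSA, Na3VO4 and Tween-20, using a 1 h reaction and luminescence read-out.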
On the technique in general: In ADP-Glo the light output rises with the ADP produced.

Assay [2] deals with T2, Full length DGKζ (in-house protein M1-V929) (Homo sapiens, UniProt Q13574).
T2 construct: His (N); TEV cleavage site (N); made in house; host or cells: Sf9 insect cells (baculovirus, Bac-to-Bac)
T2 sequence (Q13574 1-929 isoform Q13574-4): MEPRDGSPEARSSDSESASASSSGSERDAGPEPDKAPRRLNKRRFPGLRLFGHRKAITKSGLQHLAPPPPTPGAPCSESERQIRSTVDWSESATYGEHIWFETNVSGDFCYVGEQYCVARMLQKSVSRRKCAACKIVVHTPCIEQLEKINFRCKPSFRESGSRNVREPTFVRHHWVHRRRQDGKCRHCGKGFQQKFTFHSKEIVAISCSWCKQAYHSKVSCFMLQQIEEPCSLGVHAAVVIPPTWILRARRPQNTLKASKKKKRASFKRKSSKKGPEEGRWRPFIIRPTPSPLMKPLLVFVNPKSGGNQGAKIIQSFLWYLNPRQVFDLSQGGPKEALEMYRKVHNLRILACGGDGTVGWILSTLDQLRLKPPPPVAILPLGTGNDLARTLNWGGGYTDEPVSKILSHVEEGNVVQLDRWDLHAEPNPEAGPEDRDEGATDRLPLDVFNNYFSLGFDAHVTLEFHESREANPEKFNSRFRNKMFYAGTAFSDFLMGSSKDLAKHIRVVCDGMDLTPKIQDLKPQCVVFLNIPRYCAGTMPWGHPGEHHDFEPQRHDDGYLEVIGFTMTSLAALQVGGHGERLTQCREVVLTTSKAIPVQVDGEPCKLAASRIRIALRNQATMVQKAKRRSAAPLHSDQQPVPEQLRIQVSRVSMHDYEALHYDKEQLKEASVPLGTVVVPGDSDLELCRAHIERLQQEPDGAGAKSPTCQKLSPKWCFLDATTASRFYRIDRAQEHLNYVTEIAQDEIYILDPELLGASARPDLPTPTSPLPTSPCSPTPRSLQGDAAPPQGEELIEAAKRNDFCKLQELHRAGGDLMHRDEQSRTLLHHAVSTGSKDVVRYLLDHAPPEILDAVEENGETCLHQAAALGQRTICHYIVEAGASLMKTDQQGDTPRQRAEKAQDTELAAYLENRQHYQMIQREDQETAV
Description: Biochemical DGK IC50 assay (ADP-Glo, lipid micelle substrate), DGKζ. The following applies: 0.5 nM enzyme, 140 μM ATP, 80 μM DAG, 1 hour preincubation, 1 hour reaction, room temperature, read-out: IC50s for DGKζ. The procedure, abridged: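 In-house full-length human DGKζ, baculovirus-expressed in Sf9 cells, was assayed with a DAG/PS lipid micelle substrate at room temperature. Buffer was 50 mM HEPES, 10 mM MgCl2, 0.01% BSA, 0.1 mM Na3VO4, 0.005% Tween-20, 0.01 mM CaCl2, with final compound 1.55˜10000 nM or 23.3˜150000 nM.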

T1 sequence (P23743 whole entry): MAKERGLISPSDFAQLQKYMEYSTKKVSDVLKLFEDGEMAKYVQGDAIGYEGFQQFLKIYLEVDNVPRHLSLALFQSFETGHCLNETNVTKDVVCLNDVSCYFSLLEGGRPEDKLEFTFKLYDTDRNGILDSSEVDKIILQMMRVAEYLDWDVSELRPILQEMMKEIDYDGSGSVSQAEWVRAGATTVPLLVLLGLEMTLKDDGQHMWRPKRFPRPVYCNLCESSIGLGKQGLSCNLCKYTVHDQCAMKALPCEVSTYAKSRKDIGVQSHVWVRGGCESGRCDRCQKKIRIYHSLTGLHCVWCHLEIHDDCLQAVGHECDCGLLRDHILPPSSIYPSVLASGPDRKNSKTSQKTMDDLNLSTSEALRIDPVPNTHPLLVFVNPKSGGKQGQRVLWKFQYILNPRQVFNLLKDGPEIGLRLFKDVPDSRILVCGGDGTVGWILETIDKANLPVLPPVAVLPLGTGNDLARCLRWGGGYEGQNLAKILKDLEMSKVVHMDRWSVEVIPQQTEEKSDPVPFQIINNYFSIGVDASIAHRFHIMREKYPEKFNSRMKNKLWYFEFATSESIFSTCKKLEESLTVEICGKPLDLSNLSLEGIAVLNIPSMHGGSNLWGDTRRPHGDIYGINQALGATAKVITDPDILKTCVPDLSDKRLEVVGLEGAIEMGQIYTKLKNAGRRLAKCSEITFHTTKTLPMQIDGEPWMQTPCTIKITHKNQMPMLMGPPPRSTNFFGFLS

As for `CC[C@H]1CN(C(C)c2ccc(OC(C)C)cc2)[C@H](CC)CN1c1cc(=O)n(C)n2cc(CC#N)nc12` (stereo partly drawn) [Compound A51, 2-(8-((2S,5R)-2,5-diethyl-4-(1-(4-isopropoxyphenyl)ethyl)piperazin-1-yl)-5-methyl-6-oxo-5,6-dihydroimidazo[1,2-b]pyridazin-2-yl)acetonitrile], the values for the IC50 in assay [1] and in assay [2] were 90 nM and 284 nM, respectively.
The matching figures for `CC[C@@H]1CN(c2cc(=O)n(C)n3cc(COC)nc23)[C@@H](C)CN1C(C)c1ccc(C(F)(F)F)cc1F` (single isomer, unassigned) [Compound A16a]: 4650 nM and 1230 nM.
In the case of `CC[C@@H]1CN(c2cc(=O)n(C)n3cc(CC#N)nc23)[C@@H](C)CN1C(C)c1ccc2nccnc2c1` (single isomer, unassigned) [Compound A13b], the IC50 in assay [1] was found to be 4180 nM; in assay [2] it was 3610 nM.
The matching figures for `CC[C@H]1CN(C(C)c2ccc(OC)cc2)[C@H](CC)CN1c1cc(=O)n(C)n2cc(CC#N)nc12` (stereo partly drawn) [Compound A72, 2-(8-((2S,5R)-2,5-diethyl-4-(1-(4-methoxyphenyl)ethyl)piperazin-1-yl)-5-methyl-6-oxo-5,6-dihydroimidazo[1,2-b]pyridazin-2-yl)acetonitrile]: 23 nM and 76 nM.
The matching figures for `CC[C@H]1CN(C(C)c2ccc3nc(C4CC4)sc3n2)[C@H](CC)CN1c1cc(=O)n(C)n2cc(CC#N)nc12` (single isomer, unassigned) [Compound A109a]: 1490 nM and 1800 nM.
Consider `CC[C@H]1CN(C(C)c2ccc(F)cc2OC)[C@H](CC)CN1c1cc(=O)n(C)n2cc(CC#N)nc12` (stereo partly drawn) [Compound A32, 2-(8-((2S,5R)-2,5-diethyl-4-(1-(4-fluoro-2-methoxyphenyl)ethyl)piperazin-1-yl)-5-methyl-6-oxo-5,6-dihydroimidazo[1,2-b]pyridazin-2-yl)acetonitrile], for which the results for the IC50 in assay [1] and in assay [2] were 6420 nM and 110 nM, respectively.
The matching figures for `CC[C@@H]1CN(c2cc(=O)n(C)n3cc(CC#N)nc23)[C@@H](C)CN1C(C)c1ccc(C2CC2)nc1` (single isomer, unassigned) [Compound A43b]: 1490 nM and > 10000 nM.
The matching figures for `CC[C@H]1CN(C(C)c2ccc(C3CC3(F)F)nc2)[C@H](CC)CN1c1cc(=O)n(C)n2cc(CC#N)nc12` (single isomer, unassigned) [Compound A70b]: 466 nM and 886 nM.
For the molecule `Cc1cnc2ccc(C(C)N3C[C@H](C)N(c4c(F)c(=O)n(C)n5cc(CC#N)nc45)C[C@H]3C)cc2n1` (stereo partly drawn) [Compound A22, 2-(8-((2S,5R)-2,5-dimethyl-4-(1-(3-methylquinoxalin-6-yl)ethyl)piperazin-1-yl)-7-fluoro-5-methyl-6-oxo-5,6-dihydroimidazo[1,2-b]pyridazin-2-yl)acetonitrile], the IC50 stood at 10800 nM in assay [1] and 95 nM in assay [2].
The matching figures for `CC[C@@H]1CN(c2cc(=O)n(C)n3cc(C=NOC)nc23)[C@@H](C)CN1C(C)c1ccc2nccnc2c1` (single isomer, unassigned) [Compound A9d]: 211 nM and > 10000 nM.
The matching figures for `CC[C@@H]1CN(c2cc(=O)n(C)n3cc(CC#N)nc23)[C@@H](C)CN1C(C)c1ccc2nc(C)sc2c1` (stereo partly drawn) [Compound A55, 2-(8-((2S,5R)-5-ethyl-2-methyl-4-(1-(2-methylbenzo[d]thiazol-6-yl)ethyl)piperazin-1-yl)-5-methyl-6-oxo-5,6-dihydroimidazo[1,2-b]pyridazin-2-yl)acetonitrile]: 789 nM and 108 nM.
The matching figures for `CC[C@H]1CN(C(C)c2ccc(C(C)(C)F)nc2)[C@H](CC)CN1c1cc(=O)n(C)n2cc(CC#N)nc12` (single isomer, unassigned) [Compound A46b]: 671 nM and 877 nM.
Consider `CC[C@H]1CN(C(C)c2ccc3nc(C)sc3c2)[C@H](CC)CN1c1cc(=O)n(C)n2cc(C=NOC)nc12` (single isomer, unassigned) [Compound A123bc], for which the values for the IC50 in assay [1] and in assay [2] were 131 nM and 2390 nM, respectively.
